ChEMBL document CHEMBL1201862, “PubChem BioAssay data set” (2004)
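Cells were grown in 96-well plates and exposed to each compound for 48 hours at five concentrations; endpoints were interpolated linearly between bracketing concentrations, or set to the highest concentration if not reached. GI50 is the concentration that inhibits growth by half.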 Activity calls are given as the source filed them. No stated cut-off is given here; in the data, active = GI50 up to about 1.1 µM and inactive = higher.

How the values were obtained:
Test in all cases: DTP human tumour cell line panel, 48 h
A498 = system: A498
CCRF-CEM = system: CCRF-CEM
COLO 205 = system: COLO 205
EKVX = system: EKVX
HL-60 = system: HL-60
Hs-578T = system: Hs-578T
K562 = system: K562
KM12 = system: KM12
MDA-MB-435 = system: MDA-MB-435
MOLT-4 = system: MOLT-4
OVCAR-4 = system: OVCAR-4
PC-3 = system: PC-3
SF-268 = system: SF-268
SF-295 = system: SF-295
SK-MEL-5 = system: SK-MEL-5
SNB-19 = system: SNB-19
TK-10 = system: TK-10
U-251 = system: U-251
UACC-257 = system: UACC-257
UACC-62 = system: UACC-62

Row | SMILES | GI50 (A498) | GI50 (CCRF-CEM) | GI50 (COLO 205) | GI50 (EKVX) | GI50 (HL-60) | GI50 (Hs-578T) | GI50 (K562) | GI50 (KM12) | GI50 (MDA-MB-435) | GI50 (MOLT-4) | GI50 (OVCAR-4) | GI50 (PC-3) | GI50 (SF-268) | GI50 (SF-295) | GI50 (SK-MEL-5) | GI50 (SNB-19) | GI50 (TK-10) | GI50 (U-251) | GI50 (UACC-257) | GI50 (UACC-62)
1 | Nc1nc(N)c2nn(-c3ccc(C(=O)O)cc3)nc2n1 | > 100 µM (inactive) | > 100 µM (inactive) | > 100 µM (inactive) | > 100 µM (inactive) | 72.1 µM (inactive) | > 100 µM (inactive) | > 100 µM (inactive) | > 100 µM (inactive) | > 100 µM (inactive) | > 100 µM (inactive) | > 100 µM (inactive) | > 100 µM (inactive) | > 100 µM (inactive) | > 100 µM (inactive) | > 100 µM (inactive) | > 100 µM (inactive) | > 100 µM (inactive) | > 100 µM (inactive) | > 100 µM (inactive) | > 100 µM (inactive)
2 | CCC(C)C(=O)O[C@H]1C(=O)O[C@@H]2C[C@H]3C(C)=CC(=O)[C@@H](O)[C@]3(C)[C@H]3[C@@H](O)[C@H](O)[C@@]4(C)OC[C@]32[C@@H]14 (stereo not given in full) | < 0.01 µM (active) | 0.0143 µM (active) | 0.0229 µM (active) | 0.121 µM (active) | 0.014 µM (active) | < 0.01 µM (active) | 0.0109 µM (active) | < 0.0161 µM (active) | < 0.01 µM (active) | 0.0112 µM (active) | < 0.01 µM (active) | < 0.01 µM (active) | < 0.0164 µM (active) | < 0.0205 µM (active) | < 0.0169 µM (active) | < 0.0143 µM (active) | < 0.0198 µM (active) | < 0.0171 µM (active) | < 0.01 µM (active) | < 0.019 µM (active)
3 | CC(=O)N1NC(c2ccccc2)=NC(=O)C1c1cc(C)c(O)c(C)c1 (stereo not given) | 28.3 µM (inactive) | > 100 µM (inactive) | > 100 µM (inactive) | 34 µM (inactive) | > 100 µM (inactive) | 29.8 µM (inactive) | > 100 µM (inactive) | 36 µM (inactive) | 64.4 µM (inactive) | > 100 µM (inactive) | 19.8 µM (inactive) | 27.8 µM (inactive) | 16.9 µM (inactive) | 19.1 µM (inactive) | 20.3 µM (inactive) | 21.2 µM (inactive) | 20.6 µM (inactive) | 19.2 µM (inactive) | 31.2 µM (inactive) | 20.3 µM (inactive)
4 | CC(NNC(=O)c1ccncc1)c1ccc(Cl)cc1Cl (stereo not given) | > 100 µM (inactive) | 49.4 µM (inactive) | > 100 µM (inactive) | > 100 µM (inactive) | 46.5 µM (inactive) | > 100 µM (inactive) | > 100 µM (inactive) | 49.3 µM (inactive) | > 100 µM (inactive) | 83.8 µM (inactive) | > 100 µM (inactive) | 59.8 µM (inactive) | > 100 µM (inactive) | 72.9 µM (inactive) | 67.3 µM (inactive) | > 100 µM (inactive) | > 100 µM (inactive) | > 100 µM (inactive) | > 100 µM (inactive) | > 100 µM (inactive)
5 | N=C(N)NC1C(O)C(O)C(O)C(NC(=N)N)C1O (stereo not given) | > 100 µM (inactive) | > 100 µM (inactive) | > 100 µM (inactive) | > 100 µM (inactive) | > 100 µM (inactive) | > 100 µM (inactive) | > 100 µM (inactive) | > 100 µM (inactive) | > 100 µM (inactive) | > 100 µM (inactive) | > 100 µM (inactive) | > 100 µM (inactive) | > 100 µM (inactive) | > 100 µM (inactive) | > 100 µM (inactive) | > 100 µM (inactive) | > 100 µM (inactive) | > 100 µM (inactive) | > 100 µM (inactive) | > 100 µM (inactive)
